In the OligoGym collection:
Where “and” joins values, the source holds several entries; their conditions need not be identical. Equal values may be shown once. After the bases stand the sugars from the 5' end (letter, count) and the backbone: PS all phosphorothioate, else s phosphorothioate and o phosphodiester by linkage. Methylation of C is not given here. e = 2'-O-(2-methoxyethyl) (MOE); k = constrained ethyl (cEt); d = 2'-deoxy (DNA)

Biological target: IRF4
Settings: ASO

Sequence	target mRNA inhibition (MM.1R, 1 µM)	target mRNA inhibition (SK-MEL-28, 4 µM)	further results
TGTTACCGATGCTTCA (sugars kkdddddddddekeke, PS)	35% and 49%		
TGTTACTTTCAAATCG (sugars k3 d10 k3, PS)		48%	
TTAAAGAGCGCATTTC (sugars k3 d10 k3, PS)		41%	
TTAATTATGCAGAAGC (sugars k3 d10 k3, PS)		13%	
TTACACCCAGAAGTAC (sugars k3 d10 k3, PS)		5%	
TTACACTGGATCTGAA (sugars k3 d10 k3, PS)		38%	
TTACATCCTAGAACAC (sugars k3 d10 k3, PS)		3%	
TTACCGCATTGCTAGA (sugars k3 d10 k3, PS)	13% and 26%		
TTAGGAACGAAGAGCA (sugars k3 d10 k3, PS)		32%	
TTATAACCGGTAGAGT (sugars k3 d10 k3, PS)		38%	
TTATAGTAGGTAAGAT (sugars k3 d10 k3, PS)		2%	
TTATATACTGGTTGGT (sugars k3 d10 k3, PS)		49%	
TTATATACTGGTTGGT (sugars kddddddddddkekek, PS)	22%		
TTATATACTGGTTGGT (sugars kkdddddddddkdkdk, PS)	18%		
TTATATATGACGACTT (sugars k3 d10 k3, PS)		35%	
TTATGCCATGGACAAG (sugars k3 d10 k3, PS)	19%		
TTATGTTAGCCAATTC (sugars kddddddddddkekek, PS)	2% and 6%		
TTATGTTAGCCAATTC (sugars kkddddddddddkeke, PS)	11% and 16%		
TTATGTTAGCCAATTC (sugars kkdddddddddekeke, PS)	9% and 8%		
TTATGTTAGCCAATTC (sugars kkdddddddddkdkdk, PS)	17% and 26%		
TTCAGCAGAAAGTGGG (sugars k3 d10 k3, PS)		48%	
TTCAGCCACGAGGCAC (sugars k3 d10 k3, PS)		5%	
TTCATGTAAAGTCTGC (sugars kkddddddddddkeke, PS)	49% and 28%		
TTCCAACAATAGCAAC (sugars k3 d10 k3, PS)		46%	
TTCCACACTGGATATG (sugars k3 d10 k3, PS)		41%	
TTCCATAGAGCCAGAG (sugars k3 d10 k3, PS)		37%	
TTCCATAGATCAACAT (sugars k3 d10 k3, PS)		44%	

Sequence	target mRNA inhibition (MM.1R, 1 µM)	target mRNA inhibition (SK-MEL-28, 4 µM)	further results
TTCCGTAGTCAGCTCC (sugars k3 d10 k3, PS)		68%	
TTCCTGTAACAGGCTA (sugars k3 d10 k3, PS)		63% and 77%	
TTCGAGAGAAATATAC (sugars k3 d10 k3, PS)	22%		
TTCGAGGTGATTCTCG (sugars k3 d10 k3, PS)		5%	
TTCTAATGGTGCTCCT (sugars k3 d10 k3, PS)		7%	
TTCTAGCTAACTTACA (sugars k3 d10 k3, PS)	-18%		
TTCTAGGTAATCTGTA (sugars k3 d10 k3, PS)		38%	
TTGAAAGACTAACTGG (sugars k3 d10 k3, PS)		20%	
TTGAGGTTTTCCTAAA (sugars k3 d10 k3, PS)		29%	
TTGATGTGATAGCTGA (sugars k2 d9 e3 k2, PS)	17%		
TTGATGTGATAGCTGA (sugars kkdddddddddkekek, PS)	24%		
TTGCAAGAGAACAGCC (sugars k3 d10 k3, PS)		39%	
TTGTCCTCTGGGTAGG (sugars k3 d10 k3, PS)		30%	
TTGTCTGGCTAGCAGA (sugars k3 d10 k3, PS)		45%	
TTGTTAACAATGTATC (sugars k3 d10 k3, PS)		47%	
TTTAAGTCATGTGTCA (sugars k3 d10 k3, PS)		50%	
TTTACAGCATCTAAGG (sugars k3 d10 k3, PS)		34%	
TTTAGTATCACCTCTA (sugars k3 d10 k3, PS)	30%		
TTTATAGTAGGTAAGA (sugars k3 d10 k3, PS)		6%	
TTTATGCCCTCGCTCA (sugars k3 d10 k3, PS)		24%	
TTTATGCGAAGAATTT (sugars k3 d10 k3, PS)		33%	
TTTATGTTAGCCAATT (sugars kkdddddddddkdkdk, PS)	11% and 34%		
TTTATGTTAGCCAATT (sugars kkdddddddddkekek, PS)	9% and 15%		
TTTCACATGATAAGGC (sugars k3 d10 k3, PS)		43%	
TTTCATATTTGGAGCC (sugars k3 d10 k3, PS)	25% and 45%	75%	target mRNA inhibition (MM.1R, 0.0625 µM): -3% and 21%; target mRNA inhibition (MM.1R, 0.25 µM): 10% and 18%; target mRNA inhibition (MM.1R, 4 µM): 45% and 60%
TTTGAGACTTAACCCA (sugars k3 d10 k3, PS)	31%		
TTTGCTTTGGGCACCA (sugars k3 d10 k3, PS)	24%		
